Assay results reported in paper PMC9481026 (PLoS ONE, 2022).
Like-named read-outs stand apart in the source and are kept apart here.

Experiments:
[1] = system: RVFV strain MP-12; assay: microbe, parasite or virus in culture; format: cell-based, Rift Valley fever virus
[2] = system: RVFV MP-12; assay: microbe, parasite or virus in culture; format: cell-based, Rift Valley fever virus; details: read-out: Estimated EC50
[3] = molecular target: T1, Human RNase H1 (Homo sapiens, UniProt O60930); assay: biochemical; details: read-out: Human RNase H1 (IC50)
T1 construct: made in house; host or cells: E. coli
T1 sequence (O60930 1-286): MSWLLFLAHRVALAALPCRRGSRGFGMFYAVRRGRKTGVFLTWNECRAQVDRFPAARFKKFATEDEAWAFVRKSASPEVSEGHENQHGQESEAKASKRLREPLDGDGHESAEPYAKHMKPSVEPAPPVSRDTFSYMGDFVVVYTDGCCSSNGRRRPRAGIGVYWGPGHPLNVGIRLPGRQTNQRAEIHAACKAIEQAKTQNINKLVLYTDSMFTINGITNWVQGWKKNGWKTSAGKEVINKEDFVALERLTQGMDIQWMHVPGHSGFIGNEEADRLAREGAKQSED

[4] = system: Staphylo-coccus spp.; assay: organism not typed; format: cell-based
[5] = system: E. coli; assay: microbe, parasite or virus in culture; format: cell-based
[6] = system: C. neoformans; assay: microbe, parasite or virus in culture; format: cell-based
[7] = system: RVFV strain MP-12; assay: microbe, parasite or virus in culture; format: cell-based, Rift Valley fever virus; details: read-out: A549 EC50
[8] = system: LACV; assay: microbe, parasite or virus in culture; format: cell-based, La Crosse virus; details: read-out: LACV EC50
[9] = system: ZIKV; assay: microbe, parasite or virus in culture; format: cell-based, Zika virus; details: read-out: ZIKV EC50
[10] = system: Vero cells
[11] = system: A549 cells
[12] = system: HepDES19

Compound: Cc1cc(O)c(=O)c(O)cc1C(=O)c1ccccc1O [Compound 311]
- EC50 ([1]; read-out: EC50): 11.8 µM
- EC50 [2]: 3.16 µM
- IC50 [3]: 26 µM
- Staphylo-coccus spp. (MIC80, μM) [4]: 67 µM
- E. coli (MIC80, μM) [5]: 30 µM
- C. neoformans (MIC80, μM) [6]: 15 µM

Compound: CC(=O)c1c(C)cc(O)c(=O)c(O)c1Br [Compound 320]
- EC50 ([1]; read-out: EC50): 34 µM
- EC50 ([1]; read-out: Vero EC50): 34 µM
- EC50 [2]: 2 µM
- EC50 [7]: 90.3 µM
- EC50 [8]: > 120 µM
- EC50 [9]: > 120 µM
- IC50 [3]: 37 µM
- C. neoformans (MIC80, μM) [6]: 49 µM
- CC50 [10]: > 120 µM
- CC50 [11]: 154 µM
- CC50 [12]: 49.5 µM

Compound: CC(=O)c1c(C)cc(O)c(=O)c(O)c1-c1ccccc1 [Compound 330]
- EC50 ([1]; read-out: EC50): 10.4 µM
- EC50 ([1]; read-out: Vero EC50): 10.4 µM
- EC50 [2]: 2 µM
- EC50 [7]: 42.6 µM
- EC50 [8]: > 120 µM
- EC50 [9]: 32.7 µM
- IC50 [3]: 476 µM
- Staphylo-coccus spp. (MIC80, μM) [4]: 44 µM
- C. neoformans (MIC80, μM) [6]: 4.0 µM
- CC50 [10]: > 120 µM
- CC50 [11]: > 240 µM
- CC50 [12]: 56.2 µM

Compound: CC(=O)c1c(C)cc(O)c(=O)c(O)c1-c1cccc2ccccc12 [Compound 331]
- EC50 ([1]; read-out: EC50): 15.8 µM
- EC50 ([1]; read-out: Vero EC50): 15.8 µM
- EC50 [2]: 2 µM
- EC50 [7]: 17.7 µM
- IC50 [3]: 448 µM
- Staphylo-coccus spp. (MIC80, μM) [4]: 67 µM
- C. neoformans (MIC80, μM) [6]: 11 µM
- CC50 [10]: 80.4 µM
- CC50 [11]: > 240 µM
- CC50 [12]: 36.6 µM

Compound: Cc1cc(O)c(=O)c(O)cc1C(=O)c1ccc(Br)cc1 [Compound 358]
- EC50 ([1]; read-out: RVFV (EC50)): 9 µM
- IC50 [3]: 43 µM
- E. coli (MIC80, μM) [5]: 20 µM
- C. neoformans (MIC80, μM) [6]: 11 µM
- CC50 [10]: > 120 µM
- CC50 [12]: 12.5 µM

Compound: Cc1cc(O)c(=O)c(O)cc1C(=O)N1CCCCC1 [Compound 390]
- EC50 ([1]; read-out: EC50): 11.9 µM
- EC50 ([1]; read-out: Vero EC50): 11.9 µM
- EC50 [2]: 0.1 µM
- EC50 [7]: 9.4 µM
- EC50 [8]: > 120 µM
- EC50 [9]: > 120 µM
- IC50 [3]: 106 µM
- C. neoformans (MIC80, μM) [6]: 11 µM
- CC50 [10]: > 120 µM
- CC50 [11]: 224 µM
- CC50 [12]: 29.8 µM

Compound: CC(=Nc1ccc(C(F)(F)F)cc1)c1c(C)cc(=O)n(O)c1O [Compound 517]
- EC50 ([1]; read-out: Vero EC50): > 120 µM
- EC50 [2]: 13 µM
- EC50 [7]: 95.8 µM
- EC50 [8]: > 120 µM
- EC50 [9]: > 120 µM
- IC50 [3]: 135 µM
- C. neoformans (MIC80, μM) [6]: 24 µM
- CC50 [10]: > 120 µM
- CC50 [11]: 71.8 µM
- CC50 [12]: 91 µM

Compound: CCc1cccc(N=C(C)c2c(C)cc(=O)n(O)c2O)c1 [Compound 518]
- EC50 ([1]; read-out: EC50): 19.5 µM
- EC50 ([1]; read-out: Vero EC50): 20 µM
- EC50 [2]: 7 µM
- EC50 [7]: 17.2 µM
- EC50 [8]: > 120 µM
- EC50 [9]: > 120 µM
- IC50 [3]: 436 µM
- Staphylo-coccus spp. (MIC80, μM) [4]: 67 µM
- C. neoformans (MIC80, μM) [6]: 24 µM
- CC50 [10]: > 120 µM
- CC50 [11]: 16.5 µM
- CC50 [12]: 91.4 µM

Compound: CC[C@H](C)[C@H](NC(=O)OCC1c2ccccc2-c2ccccc21)C(=O)Sc1cccccc1=O [Compound 686]
- EC50 ([1]; read-out: Vero EC50): 6.3 µM
- EC50 [2]: 2.16 µM
- EC50 [7]: 7.9 µM
- EC50 [8]: 45.4 µM
- EC50 [9]: > 120 µM
- IC50 [3]: > 500 µM
- Staphylo-coccus spp. (MIC80, μM) [4]: 30 µM
- C. neoformans (MIC80, μM) [6]: 0.85 µM
- CC50 [10]: > 120 µM
- CC50 [11]: 67.6 µM
- CC50 [12]: 42.6 µM

Compound: O=c1c(O)cccc(SCCc2ccccc2)c1O [Compound 704]
- EC50 ([1]; read-out: EC50): 14.3 µM
- EC50 ([1]; read-out: Vero EC50): 14.3 µM
- EC50 [2]: 14 µM
- EC50 [7]: 20 µM
- EC50 [8]: 89.2 µM
- EC50 [9]: 19.5 µM
- IC50 [3]: 25 µM
- Staphylo-coccus spp. (MIC80, μM) [4]: 20 µM
- C. neoformans (MIC80, μM) [6]: 1.8 µM
- CC50 [10]: > 120 µM
- CC50 [11]: 43 µM
- CC50 [12]: 21.6 µM

Compound: CCCCCCSc1cccc(O)c(=O)c1O [Compound 840]
- EC50 ([1]; read-out: EC50): 31.6 µM
- EC50 ([1]; read-out: Vero EC50): 31.6 µM
- EC50 [2]: 14 µM
- EC50 [7]: 15.4 µM
- EC50 [8]: > 120 µM
- EC50 [9]: > 120 µM
- IC50 [3]: 73 µM
- C. neoformans (MIC80, μM) [6]: 1.0 µM
- CC50 [10]: > 120 µM
- CC50 [11]: 142 µM
- CC50 [12]: 21.5 µM
